Test results taken from ChEMBL document CHEMBL1123967, “New potent antagonists of leukotrienes C4 and D4. 1. Synthesis and structure-activity relationships” (J Med Chem, 1988).

How the values were obtained:
[1] = biological target: T1, Cysteinyl leukotriene receptor (Homo sapiens, UniProt Q9Y271+Q9NS75); test: Inhibition of LTC4 induced smooth muscle contraction of guinea pig ileum; format: functional, tissue-based, Cavia porcellus; conditions: target entry is the homologue from another species
T1 sequence (Q9Y271 whole entry): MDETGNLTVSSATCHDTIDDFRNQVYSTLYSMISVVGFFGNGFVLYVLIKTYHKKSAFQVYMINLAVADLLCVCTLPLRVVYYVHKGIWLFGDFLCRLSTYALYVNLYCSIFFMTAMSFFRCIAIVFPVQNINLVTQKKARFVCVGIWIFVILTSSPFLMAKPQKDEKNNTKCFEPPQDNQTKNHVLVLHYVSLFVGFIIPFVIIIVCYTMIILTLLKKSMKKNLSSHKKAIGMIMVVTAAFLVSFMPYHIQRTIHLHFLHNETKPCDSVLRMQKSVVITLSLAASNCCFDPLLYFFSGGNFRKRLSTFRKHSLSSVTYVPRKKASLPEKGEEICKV
T1 sequence (Q9NS75 whole entry): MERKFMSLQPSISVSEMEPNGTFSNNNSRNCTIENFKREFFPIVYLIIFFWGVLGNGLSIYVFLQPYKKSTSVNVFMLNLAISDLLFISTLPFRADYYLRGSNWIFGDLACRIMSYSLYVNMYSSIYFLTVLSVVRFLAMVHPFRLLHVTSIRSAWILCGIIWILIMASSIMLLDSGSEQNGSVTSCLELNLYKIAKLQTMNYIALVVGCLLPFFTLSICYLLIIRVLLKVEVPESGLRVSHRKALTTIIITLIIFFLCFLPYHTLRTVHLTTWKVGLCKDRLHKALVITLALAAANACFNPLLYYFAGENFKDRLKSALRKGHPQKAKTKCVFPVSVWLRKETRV

Cavia porcellus [2] = test: Inhibition of LTD4 (5 ng/site) induced vascular permeability in guinea pig skin at dose 10 mg/kg given perorally; format: functional; conditions: route oral
[3] = biological target: Cysteinyl leukotriene receptor (Homo sapiens) (UniProt Q9Y271+Q9NS75); test: In vivo inhibition of LTD4-induced bronchoconstriction in anesthetized guinea pig.; format: functional, organism-based; conditions: Cavia porcellus; target entry is the homologue from another species
Cavia porcellus [4] = test: Inhibition of LTD4 (5 ng/site) induced vascular permeability in guinea pig skin at dose 0.3 mg/kg given perorally; format: functional; conditions: route oral

| SMILES | IC50 [1] | also measured |
| --- | --- | --- |
| CCCCCCOc1ccc(/C=C/C(=O)Nc2cccc3c(=O)cc(-c4nn[nH]n4)oc23)cc1 | 18 nM | – |
| C=CCCC/C=C/COc1ccc(C(=O)Nc2cccc3c2OC(c2nnn[nH]2)CO3)cc1 (stereo unspecified) | 1.1 nM | inhibition in vivo at 10 mg/kg (Cavia porcellus [2]): 2.9% |
| CCCCCc1ccc(/C=C/C(=O)Nc2cccc3ccc(-c4nn[nH]n4)nc23)cc1 | 1000 nM | – |
| CCCCCCc1ccc(C(=O)Nc2cccc3c2OC(c2nnn[nH]2)CO3)cc1 (stereo unspecified) | 210 nM | – |
| CCCCCCCCCc1ccc(C(=O)Nc2cccc3c2OC(c2nnn[nH]2)CO3)cc1 (stereo unspecified) | 160 nM | – |
| CCCCCOc1ccc(/C=C/C(=O)Nc2cccc3c2OC(c2nnn[nH]2)CO3)cc1 (stereo unspecified) | 120 nM | – |
| CCCCCc1ccccc1/C=C/C(=O)Nc1cccc2c1OC(c1nnn[nH]1)CO2 (stereo unspecified) | 2150 nM | – |
| CCCCCCOc1ccc(C(=O)Nc2cccc3c(=O)cc(-c4nn[nH]n4)oc23)cc1 | 0.86 nM | – |
| CCCC/C=C/COc1ccc(C(=O)Nc2cccc3c2OC(c2nnn[nH]2)CO3)cc1 (stereo unspecified) | 0.47 nM | ID50 [3]: 0.0055 mg/kg |
| CCCCCOc1cccc(/C=C/C(=O)Nc2cccc3c2OC(c2nnn[nH]2)CO3)c1 (stereo unspecified) | 150 nM | – |
| CCCCc1ccc(/C=C/C(=O)Nc2cccc3c2OC(c2nnn[nH]2)CO3)cc1 (stereo unspecified) | 220 nM | – |
| CCCCCCCOc1ccc(C(=O)Nc2cccc3c2OC(c2nnn[nH]2)CO3)cc1 (stereo unspecified) | 9 nM | inhibition in vivo at 10 mg/kg (Cavia porcellus [2]): < 46.7% |
| CCCCCCCCOc1ccc(C(=O)Nc2cccc3c2OC(c2nnn[nH]2)CO3)cc1 (stereo unspecified) | 14 nM | – |
| CCCCCc1ccc(/C=C/C(=O)Nc2cccc3cc(-c4nn[nH]n4)oc23)cc1 | 3100 nM | – |
| O=C(Nc1cccc2c1OC(c1nnn[nH]1)CO2)c1ccc(OCCCCCc2ccccc2)cc1 (stereo unspecified) | 11 nM | – |
| CC/C=C/COc1ccc(C(=O)Nc2cccc3c2OC(c2nnn[nH]2)CO3)cc1 (stereo unspecified) | 150 nM | – |
| CCCCCc1ccc(/C=C/C(=O)Nc2cccc3c(=O)cc(-c4nn[nH]n4)oc23)cc1 | 30 nM | ID50 [3]: 0.014 mg/kg |
| CCCCc1ccc(/C=C/C(=O)Nc2cccc3c(=O)cc(-c4nn[nH]n4)oc23)cc1 | 34 nM | – |
| CCCCCCCCCc1ccc(/C=C/C(=O)Nc2cccc3c2OC(c2nnn[nH]2)CO3)cc1 (stereo unspecified) | 3200 nM | – |
| CCCCCCCCc1ccc(C(=O)Nc2cccc3c2OC(c2nnn[nH]2)CO3)cc1 (stereo unspecified) | 100 nM | – |
| CCCCCCCCCc1ccc(C(=O)Nc2cccc3c(=O)cc(-c4nn[nH]n4)oc23)cc1 | 7 nM | – |
| CCCc1ccc(/C=C/C(=O)Nc2cccc3c2OC(c2nnn[nH]2)CO3)cc1 (stereo unspecified) | 490 nM | – |
| CCCCCCCOc1ccc(/C=C/C(=O)Nc2cccc3c2OC(c2nnn[nH]2)CO3)cc1 (stereo unspecified) | 88 nM | – |
| CCCCOc1ccc(C(=O)Nc2cccc3c(=O)cc(-c4nn[nH]n4)oc23)cc1 | 5 nM | – |
| CCCCCOc1cccc(C(=O)Nc2cccc3c2OC(c2nnn[nH]2)CO3)c1 (stereo unspecified) | 5000 nM | – |
| O=C(Nc1cccc2c1OC(c1nnn[nH]1)CO2)c1ccc(OCCCc2ccccc2)cc1 (stereo unspecified) | 20 nM | – |

| SMILES | IC50 [1] | also measured |
| --- | --- | --- |
| CCCCCc1ccc(/C=C/C(=O)Nc2cccc3c2OC(C(=O)O)CO3)cc1 (stereo unspecified) | 830 nM | ID50 [3]: 0.22 mg/kg |
| CCCCCOc1ccccc1C(=O)Nc1cccc2c1OC(c1nnn[nH]1)CO2 (stereo unspecified) | 9400 nM | – |
| CCCCOc1ccc(C(=O)Nc2cccc3c2OC(c2nnn[nH]2)CO3)cc1 (stereo unspecified) | 220 nM | – |
| CCC/C=C/COc1ccc(C(=O)Nc2cccc3c2OC(c2nnn[nH]2)CO3)cc1 (stereo unspecified) | 4.3 nM | ID50 [3]: 0.0135 mg/kg |
| CCCCCc1ccc(/C=C/C(=O)Nc2ccccc2C(=O)O)cc1 | 14000 nM | ID50 [3]: 4.5 mg/kg |
| CCC/C=C/COc1ccc(C(=O)Nc2cccc3c(=O)cc(-c4nn[nH]n4)oc23)cc1 | 1.5 nM | – |
| CCCCCCCCCCc1ccc(C(=O)Nc2cccc3c2OC(c2nnn[nH]2)CO3)cc1 (stereo unspecified) | 500 nM | – |
| CCCCCCCCCCc1ccc(/C=C/C(=O)Nc2cccc3c2OC(c2nnn[nH]2)CO3)cc1 (stereo unspecified) | 1100 nM | – |
| CCCOc1ccc(C(=O)Nc2cccc3c2OC(c2nnn[nH]2)CO3)cc1 (stereo unspecified) | 2200 nM | – |
| O=C(Nc1cccc2c1OC(c1nnn[nH]1)CO2)c1ccc(OCCc2ccccc2)cc1 (stereo unspecified) | 62 nM | – |
| CCCCCc1ccccc1C(=O)Nc1cccc2c1OC(c1nnn[nH]1)CO2 (stereo unspecified) | 40000 nM | – |
| CCCCCc1ccc(/C=C/C(=O)Nc2cccc3ccc(-c4nn[nH]n4)cc23)cc1 | 300 nM | – |
| CCCCCC#CCOc1ccc(C(=O)Nc2cccc3c2OC(c2nnn[nH]2)CO3)cc1 (stereo unspecified) | 0.67 nM | ID50 [3]: 0.0064 mg/kg |
| CCCCCc1ccc(/C=C/C(=O)Nc2ccccc2OCc2nn[nH]n2)cc1 | 3000 nM | ID50 [3]: 0.5 mg/kg |
| CCCCCCCc1ccc(C(=O)Nc2cccc3c2OC(c2nnn[nH]2)CO3)cc1 (stereo unspecified) | 70 nM | – |
| CCCCCCc1ccc(/C=C/C(=O)Nc2cccc3c2OC(c2nnn[nH]2)CO3)cc1 (stereo unspecified) | 140 nM | – |
| C=CCCC/C=C/COc1ccc(C(=O)Nc2cccc3c(=O)cc(-c4nn[nH]n4)oc23)cc1 | 0.16 nM | inhibition in vivo at 0.3 mg/kg (Cavia porcellus [4]): < 44.6%; ID50 [3]: 0.0012 mg/kg |
| CCCCCCCc1ccc(C(=O)Nc2cccc3c(=O)cc(-c4nn[nH]n4)oc23)cc1 | 4.2 nM | – |
| CCCCCCCc1ccc(/C=C/C(=O)Nc2cccc3c(=O)cc(-c4nn[nH]n4)oc23)cc1 | 100 nM | – |
| CCCCCCCCOc1ccc(C(=O)Nc2cccc3c(=O)cc(-c4nn[nH]n4)oc23)cc1 | 5.5 nM | – |
| CCCCCC/C=C/COc1ccc(C(=O)Nc2cccc3c2OC(c2nnn[nH]2)CO3)cc1 (stereo unspecified) | 5.2 nM | ID50 [3]: 0.0041 mg/kg |
| CCCCCc1ccc(/C=C/C(=O)Nc2cccc3c2OC(c2nnn[nH]2)CO3)cc1 (stereo unspecified) | 370 nM | ID50 [3]: 0.33 mg/kg |
| CCCCCc1ccc(C(=O)Nc2cccc3c2OC(c2nnn[nH]2)CO3)cc1 (stereo unspecified) | 2600 nM | – |
| CCCCCc1ccc(C(=O)Nc2cccc3c(=O)cc(-c4nn[nH]n4)oc23)cc1 | 180 nM | – |
| CCCCCCOc1ccc(C(=O)Nc2cccc3c2OC(c2nnn[nH]2)CO3)cc1 (stereo unspecified) | 13 nM | – |
| CCCCCCCc1ccc(/C=C/C(=O)Nc2cccc3c2OC(c2nnn[nH]2)CO3)cc1 (stereo unspecified) | 350 nM | – |

| SMILES | IC50 [1] | also measured |
| --- | --- | --- |
| CCCCCOc1ccc(C(=O)Nc2cccc3c2OC(c2nnn[nH]2)CO3)cc1 (stereo unspecified) | 100 nM | – |
| CCCCCc1ccc(/C=C/C(=O)Nc2cccc3c2OC(c2nnn[nH]2)C3)cc1 (stereo unspecified) | 6900 nM | – |
| CCCOc1ccc(/C=C/C(=O)Nc2cccc3c2OC(c2nnn[nH]2)CO3)cc1 (stereo unspecified) | 660 nM | – |
| CCCCCCCCCOc1ccc(C(=O)Nc2cccc3c2OC(c2nnn[nH]2)CO3)cc1 (stereo unspecified) | 20 nM | – |
| CCCCCc1ccc(/C=C/C(=O)Nc2cccc3c(=O)cc(C(=O)O)oc23)cc1 | 240 nM | ID50 [3]: 0.32 mg/kg |
| CCCCOc1ccc(/C=C/C(=O)Nc2cccc3c2OC(c2nnn[nH]2)CO3)cc1 (stereo unspecified) | 120 nM | – |
| CCCCCCc1ccc(/C=C/C(=O)Nc2cccc3c(=O)cc(-c4nn[nH]n4)oc23)cc1 | 32 nM | – |
| CCCCCc1ccc(/C=C/C(=O)Nc2ccccc2CC(=O)O)cc1 | 20000 nM | – |
| CCCCCCCOc1ccc(/C=C/C(=O)Nc2cccc3c(=O)cc(-c4nn[nH]n4)oc23)cc1 | 140 nM | – |
| CCCC/C=C/COc1ccc(C(=O)Nc2cccc3c(=O)cc(-c4nn[nH]n4)oc23)cc1 | 0.031 nM | ID50 [3]: 0.0011 mg/kg |
| CCCCCOc1ccccc1/C=C/C(=O)Nc1cccc2c1OC(c1nnn[nH]1)CO2 (stereo unspecified) | 2300 nM | – |
| CCCCCCCCCCOc1ccc(C(=O)Nc2cccc3c2OC(c2nnn[nH]2)CO3)cc1 (stereo unspecified) | 300 nM | – |
| CCCCCCCCOc1ccc(/C=C/C(=O)Nc2cccc3c2OC(c2nnn[nH]2)CO3)cc1 (stereo unspecified) | 215 nM | – |
| O=C(Nc1cccc2c(=O)cc(-c3nn[nH]n3)oc12)c1ccc(OCCCc2ccccc2)cc1 | 0.96 nM | – |
| CCCCCCOc1ccc(/C=C/C(=O)Nc2cccc3c2OC(c2nnn[nH]2)CO3)cc1 (stereo unspecified) | 21 nM | – |
| C=CCCCCCCOc1ccc(C(=O)Nc2cccc3c2OC(c2nnn[nH]2)CO3)cc1 (stereo unspecified) | 1.3 nM | inhibition in vivo at 10 mg/kg (Cavia porcellus [2]): < 75.2%; ID50 [3]: 0.0017 mg/kg |
| CCCCCCCCc1ccc(/C=C/C(=O)Nc2cccc3c2OC(c2nnn[nH]2)CO3)cc1 (stereo unspecified) | 580 nM | – |
| CCCCCCCOc1ccc(C(=O)Nc2cccc3c(=O)cc(-c4nn[nH]n4)oc23)cc1 | 0.5 nM | – |
| CCCCCCCCCOc1ccc(C(=O)Nc2cccc3c(=O)cc(-c4nn[nH]n4)oc23)cc1 | 7.4 nM | – |
| CCCCCCCCc1ccc(C(=O)Nc2cccc3c(=O)cc(-c4nn[nH]n4)oc23)cc1 | 5.5 nM | – |
| CCCCc1ccc(C(=O)Nc2cccc3c2OC(c2nnn[nH]2)CO3)cc1 (stereo unspecified) | 1500 nM | – |
| CCCCCCc1ccc(C(=O)Nc2cccc3c(=O)cc(-c4nn[nH]n4)oc23)cc1 | 15 nM | – |
| CCCCCC#CCOc1ccc(C(=O)Nc2cccc3c(=O)cc(-c4nn[nH]n4)oc23)cc1 | 0.14 nM | ID50 [3]: 0.0011 mg/kg |
| CCCCCOc1ccc(C(=O)Nc2cccc3c(=O)cc(-c4nn[nH]n4)oc23)cc1 | 53 nM | – |
| CCCCCc1ccc(/C=C/C(=O)Nc2ccccc2OCC(=O)O)cc1 | 9000 nM | ID50 [3]: 4.2 mg/kg |
